Test results as given in PubChem BioAssay AID1963985 (Molecular Pharmacology Branch, DTP, NCI, 2024).

Test system: 252836-082-R-J2-PDC tumor spheroids, viability
Test: Anticancer human tumor 252836-082-R-J2-PDC patient-derived head and neck squamous cell carcinoma cell line growth inhibition [PI3K]
Conditions: spheroids with HUVEC and MSC; for viability, T/C: stronger effect = lower value
Description: Combinatorial screen of targeted agents with the PI3K inhibitors inavolisib, alpelisib, duvelisib, and copanlisib in multi-cell type tumor spheroids
A high-throughput screen of multi-cell type tumor spheroids was designed to identify active combinations of targeted small molecules and PI3K pathway inhibitors. Complex spheroids include a stromal component modeled by human endothelial cells (HUVEC) and fibroblasts modeled by human mesenchymal stem cells (MSCs). The concentration ranges selected for each drug and investigational agent were based upon clinically achievable concentrations if the clinical Cmax of the agent was known.
Compounds. The drugs and investigational agents: inavolisib (NSC800729), alpelisib (NSC765974), duvelisib (NSC772469), copanlisib (NSC816437), ipatasertib (NSC767898), afuresertib (NSC778305), talazoparib (NSC767125), sapanisertib (NSC764658), selumetinib (NSC741078), tovorafenib (DAY101, NSC766906), vemurafenib (NSC761431), ravoxertinib (NSC781343), sotorasib (NSC818433), MRTX1133 (NSC 836407), abemaciclib (NSC 768073), palbociclib (NSC758247), venetoclax (NSC 766270), SY5609 (NSC837396), enzalutamide (NSC755605), and darolutamide (NSC825331), were obtained from the National Cancer Institute (NCI) Developmental Therapeutics Program Chemical Repository. The FDA-approved anticancer drug set is available from the NCI Developmental Therapeutics Program. […] The stock solutions were prepared in dimethyl sulfoxide (DMSO, Sigma-Aldrich, St. Louis, MO, cat. D2650) at 800-fold the tested concentration and stored at -70 degrees C prior to their use. All drugs and investigational agents were tested over a range starting from a high concentration at or near the clinical Cmax and decreasing in half-log increments. If the clinical Cmax for an agent had not been determined, the highest concentration tested was 10 microM.
Cell Culture. All cells were maintained in an incubator at 37 degrees C and 5% CO2 with 95% humidity. The PDC lines were cultured according to standard operating procedures established by the NCI PDMR (https://pdmr.cancer.gov/sops/default.htm). All PDCs were thawed and cultured in Matrigel-coated flasks prepared with a working solution of 1X Ham's F-12 nutrient mix, without supplementation (Invitrogen, Waltham, MA, cat. 11765054), 100 U/mL penicillin-streptomycin (Invitrogen, cat. 15140122), and 2.5% Matrigel (Corning Inc., Corning, NY, cat. 354248) for the first three passages. The 354836-022-R-J1-PDC, 475296-252-R-J1-PDC, and 997726-040-R-J2-PDC lines were cultured in 6A media, which includes advanced DMEM/F-12 (Thermo Fisher Scientific, cat. 12634028), 10 mM HEPES (Thermo Fisher Scientific, cat. 15630080), 1X GlutaMAX supplement (Thermo Fisher Scientific, cat. 35050061), 0.1 mg/mL primocin (InvivoGen, San Diego, CA, cat. ant-pm-2), 10% defined fetal bovine serum, heat inactivated (HyClone Laboratories Inc., Logan, UT, cat. SH30070.03HI), 50% L-WRN conditioned media (ATCC, cat. CRL-3276), 1.25 mM N-Acetyl-L-cysteine (Sigma-Aldrich, cat. A9165), 10 mM nicotinamide (Sigma-Aldrich, cat. N0636), 1X B-27 supplement (Thermo Fisher Scientific, cat. 17504044), 1X N-2 supplement (Thermo Fisher Scientific, cat. 17502048), and 10 microM Y-27632 dihydrochloride (Tocris Bioscience, Bristol, United Kingdom, cat. 1254). The 624824-186-R-J2-PDC line was cultured in 6C/Colon 1B media, which includes all 6A media components plus 50 ng/mL human EGF recombinant protein (Thermo Fisher Scientific, cat. PHG0311). […]
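Further: spheroids exposed to agents for seven days before readout.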
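Wherever viability, T/C is given: percent of vehicle DMSO control viability so 100% = untreated growth.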

**Q.** Which IC50 (curve of first compound, second compound 0.0316 µM) does the source give for `Cn1cnc2c(F)c(Nc3ccc(Br)cc3Cl)c(C(=O)NOCCO)cc21` + CC(Nc1ncnc2nc[nH]c12)c1cc2cccc(Cl)c2c(=O)n1-c1ccccc1 here?
**A.** 2200 nM

**Q.** And the IC50 (curve of first compound, second compound 0.1 µM)?
**A.** 2800 nM

**Q.** And the IC50 (curve of first compound, second compound 0.316 µM)?
**A.** 2610 nM

**Q.** And the IC50 (curve of first compound, second compound 1 µM)?
**A.** 2100 nM

**Q.** What about the IC50 (curve of first compound, second compound 3.16 µM) of the same compound?
**A.** 1480 nM

**Q.** What about the IC50 (curve of first compound, second compound 10 µM) of the same compound?
**A.** 923 nM

**Q.** What about the viability, T/C (second compound 0.0316 µM, first compound 0.00949 µM) of the same compound?
**A.** 102%

**Q.** And the viability, T/C (second compound 0.0316 µM, first compound 0.03 µM)?
**A.** 76.5%

**Q.** What about the viability, T/C (second compound 0.0316 µM, first compound 0.0949 µM) of the same compound?
**A.** 81.5%

**Q.** What about the viability, T/C (second compound 0.0316 µM, first compound 0.3 µM) of the same compound?
**A.** 92.7%

**Q.** And the viability, T/C (second compound 0.0316 µM, first compound 0.949 µM)?
**A.** 65.5%

**Q.** What about the viability, T/C (second compound 0.0316 µM, first compound 3 µM) of the same compound?
**A.** 44.2%

**Q.** What about the viability, T/C (second compound 0.1 µM, first compound 0.00949 µM) of the same compound?
**A.** 89.9%

**Q.** What about the viability, T/C (second compound 0.1 µM, first compound 0.03 µM) of the same compound?
**A.** 77.2%

**Q.** What about the viability, T/C (second compound 0.1 µM, first compound 0.0949 µM) of the same compound?
**A.** 88.8%

**Q.** What about the viability, T/C (second compound 0.1 µM, first compound 0.3 µM) of the same compound?
**A.** 95.3%

**Q.** And the viability, T/C (second compound 0.1 µM, first compound 0.949 µM)?
**A.** 74.5%

**Q.** And the viability, T/C (second compound 0.1 µM, first compound 3 µM)?
**A.** 48.4%

**Q.** What about the viability, T/C (second compound 0.316 µM, first compound 0.00949 µM) of the same compound?
**A.** 88%

**Q.** And the viability, T/C (second compound 0.316 µM, first compound 0.03 µM)?
**A.** 87.2%

**Q.** What about the viability, T/C (second compound 0.316 µM, first compound 0.0949 µM) of the same compound?
**A.** 88.6%

**Q.** And the viability, T/C (second compound 0.316 µM, first compound 0.3 µM)?
**A.** 79.3%

**Q.** What about the viability, T/C (second compound 0.316 µM, first compound 0.949 µM) of the same compound?
**A.** 77.1%

**Q.** And the viability, T/C (second compound 0.316 µM, first compound 3 µM)?
**A.** 46%

**Q.** And the viability, T/C (second compound 1 µM, first compound 0.00949 µM)?
**A.** 89.8%

**Q.** And the viability, T/C (second compound 1 µM, first compound 0.03 µM)?
**A.** 77.3%

**Q.** What about the viability, T/C (second compound 1 µM, first compound 0.0949 µM) of the same compound?
**A.** 85.3%

**Q.** What about the viability, T/C (second compound 1 µM, first compound 0.3 µM) of the same compound?
**A.** 75.6%

**Q.** And the viability, T/C (second compound 1 µM, first compound 0.949 µM)?
**A.** 72%

**Q.** And the viability, T/C (second compound 1 µM, first compound 3 µM)?
**A.** 40.4%

**Q.** And the viability, T/C (second compound 3.16 µM, first compound 0.00949 µM)?
**A.** 82.1%

**Q.** And the viability, T/C (second compound 3.16 µM, first compound 0.03 µM)?
**A.** 78.5%

**Q.** What about the viability, T/C (second compound 3.16 µM, first compound 0.0949 µM) of the same compound?
**A.** 64.6%

**Q.** And the viability, T/C (second compound 3.16 µM, first compound 0.3 µM)?
**A.** 66%

**Q.** And the viability, T/C (second compound 3.16 µM, first compound 0.949 µM)?
**A.** 61.3%

**Q.** And the viability, T/C (second compound 3.16 µM, first compound 3 µM)?
**A.** 38.6%

**Q.** And the viability, T/C (second compound 10 µM, first compound 0.00949 µM)?
**A.** 67.3%

**Q.** What about the viability, T/C (second compound 10 µM, first compound 0.03 µM) of the same compound?
**A.** 67.1%

**Q.** And the viability, T/C (second compound 10 µM, first compound 0.0949 µM)?
**A.** 64.2%

**Q.** What about the viability, T/C (second compound 10 µM, first compound 0.3 µM) of the same compound?
**A.** 54.4%

**Q.** What about the viability, T/C (second compound 10 µM, first compound 0.949 µM) of the same compound?
**A.** 53.6%

**Q.** And the viability, T/C (second compound 10 µM, first compound 3 µM)?
**A.** 31.4%

**Q.** Which viability, T/C (compound 0.00316 µM) does the source give for `COc1c(OCCCN2CCOCC2)ccc2c3n(c(=NC(=O)c4cnc(N)nc4)nc12)CCN3` here?
**A.** 96.6% [middle of 8 runs]

**Q.** What about the viability, T/C (compound 0.01 µM) of the same compound?
**A.** 80.7% [middle of 8 runs]

**Q.** What about the viability, T/C (compound 0.0316 µM) of the same compound?
**A.** 59.6% [middle of 8 runs]

**Q.** What about the viability, T/C (compound 0.1 µM) of the same compound?
**A.** 36.6% [middle of 8 runs]

**Q.** And the viability, T/C (compound 0.316 µM)?
**A.** 15.3% [middle of 7 runs]

**Q.** And the viability, T/C (compound 1 µM)?
**A.** 4.26% [middle of 8 runs]

**Q.** What about the IC50 (compound alone, run of 06/13/2023) of the same compound?
**A.** 47.6 nM [middle of 8 runs]
